Columns and labels:
MetL = target: T1, MetL (Escherichia coli, UniProt P00562); assay: chymotrypsin-coupled PPIase assay, absorbance […] nm; type: biochemical; settings: inhibitor; substrate N-Suc-Ala-Ala-cis-Pro-Phe-p-nitroanilide; two-fold molar excess of FK506, 5 min preincubation; 35 mM HEPES pH 8.0, 10 °C
T1 construct: ASKA clone in pCA24N, Ni-NTA purified from E. coli lacking six PPIs (SR18292)

Cmk = target: T2, Cmk (Escherichia coli, UniProt P0A6I0); assay: chymotrypsin-coupled PPIase assay, absorbance […] nm; type: biochemical; settings: inhibitor; substrate N-Suc-Ala-Ala-cis-Pro-Phe-p-nitroanilide; two-fold molar excess of FK506, 5 min preincubation; 35 mM HEPES pH 8.0, 10 °C
T2 construct: ASKA clone in pCA24N, Ni-NTA purified from E. coli lacking six PPIs (SR18292)
T2 sequence (P0A6I0 1-227): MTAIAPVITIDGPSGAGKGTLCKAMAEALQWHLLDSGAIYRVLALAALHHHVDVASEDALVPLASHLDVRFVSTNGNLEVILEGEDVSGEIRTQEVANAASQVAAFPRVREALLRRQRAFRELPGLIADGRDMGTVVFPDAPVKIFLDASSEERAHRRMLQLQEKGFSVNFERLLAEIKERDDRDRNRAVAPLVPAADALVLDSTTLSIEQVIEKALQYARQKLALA

T1 sequence (P00562 whole entry): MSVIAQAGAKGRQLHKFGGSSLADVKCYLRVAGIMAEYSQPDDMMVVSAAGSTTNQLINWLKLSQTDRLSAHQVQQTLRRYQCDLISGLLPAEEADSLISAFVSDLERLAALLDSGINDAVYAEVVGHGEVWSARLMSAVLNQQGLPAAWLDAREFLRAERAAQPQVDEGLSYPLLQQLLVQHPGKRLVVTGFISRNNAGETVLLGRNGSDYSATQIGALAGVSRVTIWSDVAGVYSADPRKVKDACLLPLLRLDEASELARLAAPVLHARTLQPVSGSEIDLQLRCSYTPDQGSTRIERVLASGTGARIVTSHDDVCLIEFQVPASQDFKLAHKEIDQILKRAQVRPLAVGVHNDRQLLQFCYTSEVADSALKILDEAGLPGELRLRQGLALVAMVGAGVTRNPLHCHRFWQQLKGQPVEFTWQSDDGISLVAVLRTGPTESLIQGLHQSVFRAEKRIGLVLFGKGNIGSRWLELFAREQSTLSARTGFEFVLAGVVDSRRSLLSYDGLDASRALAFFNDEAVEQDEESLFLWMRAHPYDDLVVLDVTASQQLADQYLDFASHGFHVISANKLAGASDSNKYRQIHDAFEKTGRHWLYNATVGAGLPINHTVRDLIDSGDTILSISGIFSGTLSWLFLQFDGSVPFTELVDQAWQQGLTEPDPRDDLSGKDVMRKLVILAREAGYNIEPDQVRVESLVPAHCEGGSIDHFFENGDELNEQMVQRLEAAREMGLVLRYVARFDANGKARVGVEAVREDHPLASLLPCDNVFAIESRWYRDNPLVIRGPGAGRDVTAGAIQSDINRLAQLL

SMILES: C=CC[C@@H]1/C=C(\C)C[C@H](C)C[C@H](OC)[C@H]2O[C@@](O)(C(=O)C(=O)N3CCCC[C@H]3C(=O)O[C@H](/C(C)=C/[C@@H]3CC[C@@H](O)[C@H](OC)C3)[C@H](C)[C@@H](O)CC1=O)[C@H](C)C[C@@H]2OC [FK506]
- chymotrypsin-coupled PPIase assay, absorbance 390 nm (MetL): inhibition of the PPIase activity of MetL by the two-fold molar excess of FK506
- chymotrypsin-coupled PPIase assay, absorbance 390 nm (Cmk): inhibition of the PPIase activity of Cmk by the two-fold molar excess of FK506

Reference: paper PMC7461557, “Multicopy Suppressor Analysis of Strains Lacking Cytoplasmic Peptidyl-Prolyl cis/trans Isomerases Identifies Three New PPIase Activities in Escherichia coli That Includes the DksA Transcription Factor” (International Journal of Molecular Sciences, 2020)
